Data: US20240208968A1, “ALPHA V BETA 6 AND ALPHA V BETA 1 INTEGRIN INHIBITORS AND USES THEREOF” (DiCE Molecules SV, Inc., priority 2021, published 2024)

Key:
[1] = target: αvβ6 (Homo sapiens, UniProt P06756+P18564); experiment: Solid Phase Integrin αvβ6 Assay; format: binding
Outline: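 Inhibition of αvβ6 binding to immobilized recombinant TGFb1-LAP (1 μg/mL coating), 1 h at room temperature with 1 mM MnCl2 in BSA/TBST buffer, integrin diluted to 0.2 μg/mL before addition. Streptavidin-HRP/TMB read-out; four-parameter logistic fitting gave IC50.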

[2] = target: αvβ1 (Homo sapiens, UniProt P05556+P06756); experiment: Solid Phase Integrin αvβ1 Assay; format: binding
Outline: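 Compound competes for αvβ1 binding to immobilized TGFb1-LAP (1 µg/mL coat) in Mn2+ (1 mM MnCl2), 2% BSA binding buffer over 90 min at room temperature, integrin added at 0.2 µg/mL. Read-out: streptavidin-HRP/TMB; IC50 from Levenberg-Marquardt four-parameter fit.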

αvβ1, sequence (P06756 31-992 limits assumed): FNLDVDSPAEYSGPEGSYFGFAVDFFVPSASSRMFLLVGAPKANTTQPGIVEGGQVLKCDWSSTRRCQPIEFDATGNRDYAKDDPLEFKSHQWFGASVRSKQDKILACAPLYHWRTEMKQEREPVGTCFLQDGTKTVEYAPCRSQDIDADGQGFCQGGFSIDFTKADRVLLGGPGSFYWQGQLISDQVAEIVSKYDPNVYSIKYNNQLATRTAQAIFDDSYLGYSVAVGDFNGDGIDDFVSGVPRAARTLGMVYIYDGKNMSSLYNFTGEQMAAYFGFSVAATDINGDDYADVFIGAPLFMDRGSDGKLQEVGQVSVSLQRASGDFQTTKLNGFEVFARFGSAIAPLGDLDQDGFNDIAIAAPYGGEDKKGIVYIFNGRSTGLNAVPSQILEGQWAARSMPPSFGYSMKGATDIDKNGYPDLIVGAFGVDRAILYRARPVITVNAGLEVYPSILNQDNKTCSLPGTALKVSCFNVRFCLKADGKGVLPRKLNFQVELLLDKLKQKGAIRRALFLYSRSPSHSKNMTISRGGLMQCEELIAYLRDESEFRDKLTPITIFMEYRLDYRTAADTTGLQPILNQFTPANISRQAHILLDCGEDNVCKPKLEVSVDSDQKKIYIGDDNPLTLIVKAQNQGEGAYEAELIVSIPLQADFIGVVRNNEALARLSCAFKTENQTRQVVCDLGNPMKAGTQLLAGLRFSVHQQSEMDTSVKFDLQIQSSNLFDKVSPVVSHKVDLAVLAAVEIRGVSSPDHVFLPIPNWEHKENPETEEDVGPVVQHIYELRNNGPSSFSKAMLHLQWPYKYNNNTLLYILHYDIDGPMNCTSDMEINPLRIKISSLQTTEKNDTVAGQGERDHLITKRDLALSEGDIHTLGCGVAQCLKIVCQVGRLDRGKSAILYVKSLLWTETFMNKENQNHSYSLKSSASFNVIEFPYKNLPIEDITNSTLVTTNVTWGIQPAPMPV
αvβ1, sequence (P05556 21-728 limits assumed): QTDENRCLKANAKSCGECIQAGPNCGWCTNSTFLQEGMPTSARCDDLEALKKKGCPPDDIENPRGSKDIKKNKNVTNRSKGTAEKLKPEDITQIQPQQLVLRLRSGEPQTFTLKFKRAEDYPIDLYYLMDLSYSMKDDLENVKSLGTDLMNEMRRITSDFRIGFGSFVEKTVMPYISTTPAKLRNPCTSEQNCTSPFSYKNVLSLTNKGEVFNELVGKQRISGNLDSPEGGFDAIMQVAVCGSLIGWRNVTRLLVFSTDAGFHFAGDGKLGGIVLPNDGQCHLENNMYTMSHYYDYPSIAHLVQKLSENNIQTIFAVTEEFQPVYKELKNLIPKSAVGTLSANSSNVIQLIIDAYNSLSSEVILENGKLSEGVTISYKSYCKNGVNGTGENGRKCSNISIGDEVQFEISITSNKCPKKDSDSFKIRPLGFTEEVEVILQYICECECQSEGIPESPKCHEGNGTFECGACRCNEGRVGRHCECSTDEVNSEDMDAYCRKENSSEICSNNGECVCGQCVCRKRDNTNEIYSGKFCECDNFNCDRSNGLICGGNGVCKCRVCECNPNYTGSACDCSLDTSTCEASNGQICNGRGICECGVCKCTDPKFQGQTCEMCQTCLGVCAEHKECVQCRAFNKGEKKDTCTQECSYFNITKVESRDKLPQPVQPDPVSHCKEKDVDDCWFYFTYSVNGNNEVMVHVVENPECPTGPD
αvβ6, sequence (P06756 31-992 limits assumed): as the sequence (P06756 31-992 limits assumed) above
αvβ6, sequence (P18564 22-707 limits assumed): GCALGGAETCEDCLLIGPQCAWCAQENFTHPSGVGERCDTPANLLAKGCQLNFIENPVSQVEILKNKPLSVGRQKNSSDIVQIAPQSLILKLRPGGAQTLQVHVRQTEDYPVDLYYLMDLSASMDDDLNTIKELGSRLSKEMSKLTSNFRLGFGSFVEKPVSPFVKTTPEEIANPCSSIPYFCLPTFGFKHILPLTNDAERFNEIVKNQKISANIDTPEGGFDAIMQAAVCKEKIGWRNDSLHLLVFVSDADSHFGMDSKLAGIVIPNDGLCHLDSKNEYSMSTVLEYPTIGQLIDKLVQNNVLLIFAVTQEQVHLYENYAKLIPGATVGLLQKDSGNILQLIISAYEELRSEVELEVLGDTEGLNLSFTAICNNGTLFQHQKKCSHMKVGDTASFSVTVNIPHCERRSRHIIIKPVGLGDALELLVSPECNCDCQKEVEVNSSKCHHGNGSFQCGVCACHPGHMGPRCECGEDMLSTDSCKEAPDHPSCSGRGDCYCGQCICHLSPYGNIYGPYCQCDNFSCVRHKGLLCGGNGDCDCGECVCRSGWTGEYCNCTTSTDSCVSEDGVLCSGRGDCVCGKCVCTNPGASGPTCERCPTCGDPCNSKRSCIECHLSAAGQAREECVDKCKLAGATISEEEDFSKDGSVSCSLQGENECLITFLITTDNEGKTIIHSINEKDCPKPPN

Row | Structure (SMILES) | IC50 [1] | IC50 [2]
1 | O=C(O)CC(CC(=O)N[C@H]1CCN(C(=O)CCCc2ccc3c(n2)NCCC3)C1)c1ccccc1 (stereo partly drawn) [Compound 520] | 100 to 1000 nM | < 100 nM
2 | O=C(O)C[C@@H](CC(=O)N[C@H]1CCN(C(=O)CCCc2ccc3c(n2)NCCC3)C1)c1ccccc1 [Compound 521] | 100 to 1000 nM | < 100 nM
3 | O=C(O)C[C@H](NC(=O)[C@H]1CCCN(CCCc2ccc3c(n2)NCCC3)C1)c1ccccc1 [Compound 523] | < 100 nM | 100 to 1000 nM
4 | O=C(O)CC(CC(=O)N[C@@H]1CCN(C(=O)CCCc2ccc3c(n2)NCCC3)C1)c1ccccc1 (stereo partly drawn) [Compound 524] | 100 to 1000 nM | < 100 nM
5 | O=C(O)CC(CC(=O)N[C@H]1CCN(CCCCc2ccc3c(n2)NCCC3)C1)c1ccccc1 (stereo partly drawn) [Compound 525] | 100 to 1000 nM | < 100 nM
6 | CN(CC1(C)CCCCC1)[C@@H](CNC(=O)[C@@H]1CCCN(CCCc2ccc3c(n2)NCCC3)C1)C(=O)O [Compound 527] | 100 to 1000 nM | 100 to 1000 nM
7 | O=C(O)C[C@H](OC[C@@H]1CCCN(CCCc2ccc3c(n2)NCCC3)C1)c1cccc(C2CC2)c1 [Compound 528] | > 1000 nM | > 1000 nM
8 | O=C(O)C[C@H](NC[C@@H]1CCCN(CCCc2ccc3c(n2)NCCC3)C1)c1cccc(C2CC2)c1 [Compound 529] | 100 to 1000 nM | 100 to 1000 nM
9 | CN(C[C@@H]1CCCN(CCCc2ccc3c(n2)NCCC3)C1)[C@@H](CC(=O)O)c1cccc(C2CC2)c1 [Compound 530] | > 1000 nM | > 1000 nM
10 | CN(C[C@@H]1CCCN(CCCc2ccc3c(n2)NCCC3)C1)[C@@H](CC(=O)O)c1cccc(Br)c1 [Compound 532] | > 1000 nM | > 1000 nM
11 | O=C(O)C[C@H](NC(=O)[C@@H]1CCCN(CCCc2ccc3c(n2)NCCC3)C1)c1cccc(OC2COC2)c1 [Compound 535] | < 100 nM | < 100 nM
12 | COC(C)(C)C1Cc2c(cccc2C(CNC(=O)[C@@H]2CCCN(CCCc3ccc4c(n3)NCCC4)C2)C(=O)O)CO1 (stereo partly drawn) [Compound 538] | < 100 nM | < 100 nM
13 | O=C(O)C[C@H](NC(=O)[C@@H]1CCCN(CCCc2ccc3c(n2)NCCC3)C1)c1cnc2ccccc2n1 [Compound 539] | < 100 nM | < 100 nM
14 | O=C(O)C[C@H](NC(=O)[C@@H]1CCCN(CCCc2ccc3c(n2)NCCC3)C1)c1cnc2ccccc2c1 [Compound 540] | 100 to 1000 nM | 100 to 1000 nM
15 | O=C(O)C[C@H](NC(=O)[C@@H]1CCCN(CCCc2ccc3c(n2)NCCC3)C1)c1ccc2c(c1)C1(CC2)CC1 [Compound 541] | < 100 nM | < 100 nM
16 | CN1CCc2cc(S(=O)(=O)N[C@@H](CNC(=O)[C@@H]3CCCN(CCCc4ccc5c(n4)NCCC5)C3)C(=O)O)ccc21 [Compound 542] | < 100 nM | 100 to 1000 nM
17 | O=C(N[C@@H](CNC(=O)[C@@H]1CCCN(CCCc2ccc3c(n2)NCCC3)C1)C(=O)O)c1ccccc1 [Compound 544] | < 100 nM | < 100 nM

Row | Structure (SMILES) | IC50 [1] | IC50 [2]
18 | CC(C)(C(=O)N[C@@H](CNC(=O)[C@@H]1CCCN(CCCc2ccc3c(n2)NCCC3)C1)C(=O)O)c1ccccc1 [Compound 546] | < 100 nM | < 100 nM
19 | O=C(N[C@@H](CNC(=O)[C@@H]1CCCN(CCCc2ccc3c(n2)NCCC3)C1)C(=O)O)c1cccc2c1CCC2 [Compound 549] | < 100 nM | < 100 nM
20 | C[C@@H]1CCN(CCCc2ccc3c(n2)NCCC3)C[C@@H]1C(=O)N[C@@H](CC(=O)O)c1ccccc1 [Compound 551] | < 100 nM | 100 to 1000 nM
21 | O=C(O)C[C@H](NC(=O)[C@]1(F)CCCN(CCCc2ccc3c(n2)NCCC3)C1)c1ccccc1 [Compound 555] | 100 to 1000 nM | 100 to 1000 nM
22 | O=C(O)C[C@H](NC(=O)[C@@H]1CCCN(CCCc2ccc3c(n2)NCCC3)C1)c1ccccc1C1CC1 [Compound 556] | 100 to 1000 nM | 100 to 1000 nM
23 | O=C(O)C[C@H](NC(=O)[C@@H]1CCCN(CCCc2ccc3c(n2)NCCC3)C1)c1cccc(C2CC2)c1F [Compound 559] | 100 to 1000 nM | > 1000 nM
24 | O=C(NC[C@H](C(=O)O)c1cccc2c1CCC2)[C@@H]1CCCN(CCCc2ccc3c(n2)NCCC3)C1 [Compound 560] | 100 to 1000 nM | 100 to 1000 nM
25 | O=C(NC[C@@H](C(=O)O)c1cccc2c1CCC2)[C@@H]1CCCN(CCCc2ccc3c(n2)NCCC3)C1 [Compound 561] | < 100 nM | < 100 nM
26 | O=C(NC[C@H](Nc1ncncc1C(F)(F)F)C(=O)O)[C@@H]1CCCN(CCCc2ccc3c(n2)NCCC3)C1 [Compound 563] | < 100 nM | < 100 nM
27 | CC1(C)CN(c2cccc([C@@H](CO[C@@H]3CCCN(CCCc4ccc5c(n4)NCCC5)C3)CC(=O)O)c2)CCO1 [Compound 568] | < 100 nM | < 100 nM
28 | CC1(C)CCCN(c2cccc([C@@H](CO[C@@H]3CCCN(CCCc4ccc5c(n4)NCCC5)C3)CC(=O)O)c2)C1 [Compound 570] | < 100 nM | < 100 nM
29 | CC1(C)CCCN(c2cccc([C@H](CO[C@@H]3CCCN(CCCc4ccc5c(n4)NCCC5)C3)CC(=O)O)c2)C1 [Compound 572] | < 100 nM | < 100 nM
30 | Cc1cc(C)n(-c2cccc([C@@H](CO[C@@H]3CCCN(CCCc4ccc5c(n4)NCCC5)C3)CC(=O)O)c2)n1 [Compound 574] | < 100 nM | < 100 nM
31 | Cc1cc(C)n(-c2cccc([C@H](CO[C@@H]3CCCN(CCCc4ccc5c(n4)NCCC5)C3)CC(=O)O)c2)n1 [Compound 575] | < 100 nM | 100 to 1000 nM
32 | Cc1cc(C(F)(F)F)nn1-c1cccc([C@H](CO[C@@H]2CCCN(CCCc3ccc4c(n3)NCCC4)C2)CC(=O)O)c1 [Compound 577] | < 100 nM | < 100 nM
33 | Cc1cc([C@@H](CO[C@@H]2CCCN(CCCc3ccc4c(n3)NCCC4)C2)CC(=O)O)cc(N2CCOC(C)(C)C2)c1 [Compound 579] | < 100 nM | < 100 nM
34 | CC1(C)CN(c2cc([C@H](CO[C@@H]3CCCN(CCCc4ccc5c(n4)NCCC5)C3)CC(=O)O)ccc2F)CCO1 [Compound 580] | < 100 nM | < 100 nM

More lines, now with the values ahead:

Row | IC50 [1] | IC50 [2] | Structure (SMILES)
35 | 100 to 1000 nM | < 100 nM | O=C(O)C[C@H](CC(=O)N[C@H]1CCN(C(=O)CCCc2ccc3c(n2)NCCC3)C1)c1ccccc1 [Compound 522]
36 | > 1000 nM | > 1000 nM | O=C(O)C[C@H](NC[C@@H]1CCCN(CCCc2ccc3c(n2)NCCC3)C1)c1cccc(Br)c1 [Compound 531]
37 | < 100 nM | < 100 nM | O=C(O)C[C@H](NC(=O)[C@@H]1CCCN(CCCc2ccc3c(n2)NCCC3)C1)c1cccc([C@@H]2CCOC2)c1 [Compound 533]
38 | < 100 nM | < 100 nM | O=C(O)C[C@H](NC(=O)[C@@H]1CCCN(CCCc2ccc3c(n2)NCCC3)C1)c1cccc([C@H]2CCOC2)c1 [Compound 534]
39 | < 100 nM | < 100 nM | O=C(O)C[C@H](NC(=O)[C@@H]1CCCN(CCCc2ccc3c(n2)NCCC3)C1)c1cccc(-n2cccc2)c1 [Compound 536]
40 | < 100 nM | < 100 nM | O=C(NC[C@H](NS(=O)(=O)c1cccc2c1CCC2)C(=O)O)[C@@H]1CCCN(CCCc2ccc3c(n2)NCCC3)C1 [Compound 543]
41 | < 100 nM | < 100 nM | O=C(NC[C@H](NC(=O)C1(c2ccccc2)CC1)C(=O)O)[C@@H]1CCCN(CCCc2ccc3c(n2)NCCC3)C1 [Compound 547]
42 | 100 to 1000 nM | 100 to 1000 nM | C[C@H]1C[C@@H](C(=O)N[C@@H](CC(=O)O)c2ccccc2)CN(CCCc2ccc3c(n2)NCCC3)C1 [Compound 552]
43 | 100 to 1000 nM | 100 to 1000 nM | C[C@@H]1C[C@@H](C(=O)N[C@@H](CC(=O)O)c2ccccc2)CN(CCCc2ccc3c(n2)NCCC3)C1 [Compound 553]
44 | 100 to 1000 nM | > 1000 nM | C[C@H]1CC[C@@H](C(=O)N[C@@H](CC(=O)O)c2ccccc2)CN1CCCc1ccc2c(n1)NCCC2 [Compound 554]
45 | 100 to 1000 nM | > 1000 nM | O=C(O)C[C@H](NC(=O)[C@@H]1CCCN(CCCc2ccc3c(n2)NCCC3)C1)c1ccc(C2CC2)cc1 [Compound 557]
46 | < 100 nM | < 100 nM | O=C(NC[C@H](Nc1ncnc2c(C(F)(F)F)cccc12)C(=O)O)[C@@H]1CCCN(CCCc2ccc3c(n2)NCCC3)C1 [Compound 562]
47 | < 100 nM | < 100 nM | O=C(NC[C@H](C(=O)O)c1cccc(N2C[C@H]3CC[C@@H]2CO3)c1)[C@@H]1CCCN(CCCc2ccc3c(n2)NCCC3)C1 [Compound 565]
48 | < 100 nM | < 100 nM | O=C(NC[C@H](C(=O)O)c1cccc(N2C[C@@H]3CC[C@H]2CO3)c1)[C@@H]1CCCN(CCCc2ccc3c(n2)NCCC3)C1 [Compound 566]
49 | < 100 nM | < 100 nM | O=C(Nc1ccccc1)N[C@@H](CNC(=O)[C@@H]1CCCN(CCCc2ccc3c(n2)NCCC3)C1)C(=O)O [Compound 567]
50 | 100 to 1000 nM | 100 to 1000 nM | CC1(C)CN(c2cccc([C@H](CO[C@@H]3CCCN(CCCc4ccc5c(n4)NCCC5)C3)CC(=O)O)c2)CCO1 [Compound 569]
51 | < 100 nM | < 100 nM | CC1(C)CCN(c2cccc([C@@H](CO[C@@H]3CCCN(CCCc4ccc5c(n4)NCCC5)C3)CC(=O)O)c2)CC1 [Compound 571]
52 | 100 to 1000 nM | 100 to 1000 nM | CC1(C)CCN(c2cccc([C@H](CO[C@@H]3CCCN(CCCc4ccc5c(n4)NCCC5)C3)CC(=O)O)c2)CC1 [Compound 573]
53 | < 100 nM | < 100 nM | Cc1cc(C(F)(F)F)nn1-c1cccc([C@@H](CO[C@@H]2CCCN(CCCc3ccc4c(n3)NCCC4)C2)CC(=O)O)c1 [Compound 576]
54 | < 100 nM | < 100 nM | CC1(C)CN(c2cc([C@@H](CO[C@@H]3CCCN(CCCc4ccc5c(n4)NCCC5)C3)CC(=O)O)ccc2F)CCO1 [Compound 578]
